Assay results reported in PMC9090415, “Discovery of small molecule inhibitors of Plasmodium falciparum apicoplast DNA polymerase” (Journal of Enzyme Inhibition and Medicinal Chemistry, 2022).

Biological target: P. falciparum apicoplast DNA polymerase (Pf-apPOL) (Plasmodium falciparum, UniProt Q8ILY1)
Assay: Fluorescence-based high-throughput DNA polymerase assay (molecular beacon), primary screen and dose-response
Assay type: biochemical
Method: The HT assay employs a molecular beacon, a stem-loop DNA template with a Cy3 dye and the Black Hole Quencher on the 3′ and 5′ ends of the DNA, respectively. Pf-apPOL concentration is based on a calculated absorptivity of ε280 = 56750 M^−1 cm^−1. Reactions were carried out at 25 °C, using Corning 3575 […] (well-volume, 20 µL). Assays testing for compound inhibition composed of reaction buffer (pH 7.9 in 50 mM potassium acetate, 20 mM Tris-acetate and 10 mM magnesium acetate), Pf-apPOL (20 nM), DNA substrate (20 nM), dNTPs (6 µM), and compound (10 µM in DMSO). The DNA and nucleotide substrates (dNTPs) were at concentrations of 20 nM and 6 µM, respectively, in the assay. Pf-apPOL was incubated in the reaction buffer with dNTPs and the compound of interest (10 µM, in the assay) at 25 °C for 10 min. The DNA substrate was then added and the reaction was allowed to proceed for 90 min at 25 °C.
Each assay plate contained 16 negative controls (no Pf-apPOL, DMSO present) and 16 positive controls (Pf-apPOL present, no DMSO). The fluorescence of each well was determined using a BioTek Synergy Neo fluorescence plate reader using excitation and emission wavelengths of 555 and 570 nm, respectively.
In the above, Min is the average of fluorescence emission of the negative controls (substrate only), Max the average fluorescence emission from the positive controls (enzyme + substrate), and Test the emission from the assays in the presence of compounds (enzyme + compound + substrates). […] […] The IC50 of each compound was determined using Equation (2): (2) IC50= Vmax/(1+ (I/IC50)^n)
In the above, n measures cooperativity, with n > 1 indicating synergistic binding of more than a single molecule of the compound.
To identify apPOL inhibitors we utilised our previously developed high-throughput DNA polymerase assay. The HT assay is based on a molecular beacon DNA template that forms a stem-loop with a Cy3 dye and the Black Hole Quencher on the 3′ and 5′ ends of the DNA, respectively. DNA polymerase activity extends an annealed primer through the stem region, displacing the fluorophore from the quencher, thereby increasing its fluorescence (Figure 1(A)). The assay accurately recapitulates the kinetic behaviour of apPOL, as measured through more conventional low-throughput gel-based assays. The Z′ factor for the assay described here was 0.9 across all plates (data not shown).
Figure 1. High-throughput screening. (A) The fluorescent-based DNA polymerase assay used to screen the compound libraries. The DNA template strand is a hairpin loop with a primer annealed to the loop. The 3’ end of the primer is 11 bases away from the 6 bp duplex. Strand displacement activity of the DNA polymerase separates the Cy3 dye from the Black hole quencher leading to an increase in fluorescent signal. (B) The high-throughput assay workflow. The DNA polymerase is incubated with […] compound for 10 min prior to addition of the hairpin substrate. The reaction is quenched at 3 different time points and the fluorescent signal is measured and % inhibition is determined using the provided equation.

[1] = supplemental file 2, sheet IC50 nontoxic compounds; Pf-apPOL

Sequence of P. falciparum apicoplast DNA polymerase (Pf-apPOL) (Q8ILY1 entry or part of it): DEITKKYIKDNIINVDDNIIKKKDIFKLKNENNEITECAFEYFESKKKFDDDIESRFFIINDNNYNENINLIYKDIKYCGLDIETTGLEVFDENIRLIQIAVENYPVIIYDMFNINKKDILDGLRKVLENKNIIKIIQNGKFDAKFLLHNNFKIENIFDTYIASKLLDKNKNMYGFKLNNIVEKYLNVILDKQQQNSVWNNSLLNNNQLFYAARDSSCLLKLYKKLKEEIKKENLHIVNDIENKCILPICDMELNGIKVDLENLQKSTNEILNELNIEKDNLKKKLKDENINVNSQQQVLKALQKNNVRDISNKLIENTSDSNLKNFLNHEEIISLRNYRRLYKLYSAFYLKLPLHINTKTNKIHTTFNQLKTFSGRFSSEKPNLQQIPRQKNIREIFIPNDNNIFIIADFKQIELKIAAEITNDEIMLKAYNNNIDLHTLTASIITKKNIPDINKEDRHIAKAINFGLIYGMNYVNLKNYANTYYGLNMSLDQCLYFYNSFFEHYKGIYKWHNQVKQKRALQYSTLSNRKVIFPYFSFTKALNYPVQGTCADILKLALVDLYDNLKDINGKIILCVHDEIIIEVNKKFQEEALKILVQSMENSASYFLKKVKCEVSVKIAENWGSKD

COc1ccccc1CCC(=O)N1CCc2c(nc3cc(-c4ccccc4)[nH]n3c2=O)C1 [Molecule 7, COc1ccccc1CCC(=O)N1CCc2c(C1)nc1n(c2=O)[nH]c(c1)c1ccccc1]
DNA Pol ('DNA Pol'; screening value, unit not given; 90 min, 10 µM): 40
% inhibition Apo pol 10' (DRC-1; 10'; concentration 2.5): 2.75%
% inhibition Apo pol 10' (DRC-1; 10'; concentration 5): 18%
% inhibition Apo pol 10' (DRC-1; 10'; concentration 10): 67%
% inhibition Apo pol 10' (DRC-1; 10'; concentration 20): 82%
% inhibition Apo pol 10' (DRC-1; 10'; concentration 40): 78%
% inhibition Apo pol 10' (DRC-1; 10'; concentration 80): 59%
% inhibition Apol 90' (DRC-1; 90'; concentration 2.5): 0.0541%
% inhibition Apol 90' (DRC-1; 90'; concentration 5): 9%
% inhibition Apol 90' (DRC-1; 90'; concentration 10): 54%
% inhibition Apol 90' (DRC-1; 90'; concentration 20): 73%
% inhibition Apol 90' (DRC-1; 90'; concentration 40): 72%
% inhibition Apol 90' (DRC-1; 90'; concentration 80): 63%
% inhibition apPOL 180' (DRC-1; 180'; concentration 2.5): -3.58%
% inhibition apPOL 180' (DRC-1; 180'; concentration 5): 1.16%
% inhibition apPOL 180' (DRC-1; 180'; concentration 10): 38%
% inhibition apPOL 180' (DRC-1; 180'; concentration 20): 59%
% inhibition apPOL 180' (DRC-1; 180'; concentration 40): 58%
% inhibition apPOL 180' (DRC-1; 180'; concentration 80): 49%
% inhibition Apo pol 5' (DRC-2, 5', concentration 2.5): 6%
% inhibition Apo pol 5' (DRC-2, 5', concentration 5): 26%
% inhibition Apo pol 5' (DRC-2, 5', concentration 10): 48%
% inhibition Apo pol 5' (DRC-2, 5', concentration 20): 51%
% inhibition Apo pol 5' (DRC-2, 5', concentration 40): 44%
% inhibition Apo pol 5' (DRC-2, 5', concentration 80): 21%
% inhibition Apol 40' (DRC-2, 40', concentration 2.5): 5.58%
% inhibition Apol 40' (DRC-2, 40', concentration 5): 30%
% inhibition Apol 40' (DRC-2, 40', concentration 10): 57%
% inhibition Apol 40' (DRC-2, 40', concentration 20): 64%
% inhibition Apol 40' (DRC-2, 40', concentration 40): 61%
% inhibition Apol 40' (DRC-2, 40', concentration 80): 44%
% inhibition ApPOL 90' (DRC-2, 90', concentration 2.5): 5%
% inhibition ApPOL 90' (DRC-2, 90', concentration 5): 28%
% inhibition ApPOL 90' (DRC-2, 90', concentration 10): 57%
% inhibition ApPOL 90' (DRC-2, 90', concentration 20): 65%
% inhibition ApPOL 90' (DRC-2, 90', concentration 40): 62%
% inhibition ApPOL 90' (DRC-2, 90', concentration 80): 47%
% inhibition apPOL 180' (DRC-2, 180', concentration 2.5): 3%
% inhibition apPOL 180' (DRC-2, 180', concentration 5): 21%
% inhibition apPOL 180' (DRC-2, 180', concentration 10): 48%
% inhibition apPOL 180' (DRC-2, 180', concentration 20): 59%
% inhibition apPOL 180' (DRC-2, 180', concentration 40): 55%
% inhibition apPOL 180' (DRC-2, 180', concentration 80): 41%
% inhibition apPOL 180' (conc 5 (unit not given); 180'; DRC-2): 21%
% inhibition Apo pol 5' (conc 10 (unit not given); 5'; DRC-2): 48%
% inhibition Apol 40' (conc 10 (unit not given); 40'; DRC-2): 57%
% inhibition ApPOL 90' (conc 10 (unit not given); 90'; DRC-2): 57%
% inhibition apPOL 180' (conc 10 (unit not given); 180'; DRC-2): 48%
% inhibition apPOL 180' (conc 20 (unit not given); 180'; DRC-2): 59%
% inhibition apPOL 180' (conc 20 (unit not given); 180'; first dose-response set): 59%
% inhibition Apo pol 5' (conc 40 (unit not given); 5'; DRC-2): 44%
% inhibition Apo pol 5' (conc 80 (unit not given); 5'; DRC-2): 21%
% inhibition Apo pol 10' (conc 80 (unit not given); 10'; first dose-response set): 59%
% inhibition Apol 40' (conc 80 (unit not given); 40'; DRC-2): 44%
DNA Pol (primary screen hit value, DNA Pol (186 hits); 90 min, 10 µM): 40

O=[N+]([O-])/C=C/c1ccc(-c2ccc(Br)cc2)o1 [Molecule 31, O=N(=O)/C=C/c1ccc(o1)c1ccc(cc1)Br]
% inhibition Apo pol 10' (DRC-1; 10'; concentration 2.5): 11.7941%
% inhibition Apo pol 10' (DRC-1; 10'; concentration 5): 25.8836%
% inhibition Apo pol 10' (DRC-1; 10'; concentration 10): 48.5342%
% inhibition Apo pol 10' (DRC-1; 10'; concentration 20): 74.9493%
% inhibition Apo pol 10' (DRC-1; 10'; concentration 40): 80.1629%
% inhibition Apo pol 10' (DRC-1; 10'; concentration 80): 73.881%
% inhibition Apol 90' (DRC-1; 90'; concentration 2.5): 4.734%
% inhibition Apol 90' (DRC-1; 90'; concentration 5): 14.8546%
% inhibition Apol 90' (DRC-1; 90'; concentration 10): 35.3896%
% inhibition Apol 90' (DRC-1; 90'; concentration 20): 66.0417%
% inhibition Apol 90' (DRC-1; 90'; concentration 40): 79.0677%
% inhibition Apol 90' (DRC-1; 90'; concentration 80): 80.1627%
% inhibition apPOL 180' (DRC-1; 180'; concentration 2.5): -3.116%
% inhibition apPOL 180' (DRC-1; 180'; concentration 5): 3.824%
% inhibition apPOL 180' (DRC-1; 180'; concentration 10): 20.4945%
% inhibition apPOL 180' (DRC-1; 180'; concentration 20): 51.8012%
% inhibition apPOL 180' (DRC-1; 180'; concentration 40): 73.5889%
% inhibition apPOL 180' (DRC-1; 180'; concentration 80): 81.6814%
% inhibition Apo pol 5' (DRC-2, 5', concentration 10 (unit not given)): 31%
% inhibition Apol 40' (DRC-2, 40', concentration 10 (unit not given)): 48%
% inhibition Apol 40' (DRC-2, 40', concentration 20 (unit not given)): 53%
% inhibition Apol 40' (DRC-2, 40', concentration 80 (unit not given)): 48%
% inhibition ApPOL 90' (DRC-2, 90', concentration 5 (unit not given)): 31%
% inhibition ApPOL 90' (DRC-2, 90', concentration 10 (unit not given)): 48%
% inhibition apPOL 180' (DRC-2, 180', concentration 5 (unit not given)): 21%
% inhibition apPOL 180' (DRC-2, 180', concentration 20 (unit not given)): 53%
% inhibition Apo pol 5' (DRC-2; 5'; concentration 2.5): 3.31%
% inhibition Apo pol 5' (DRC-2; 5'; concentration 5): 21%
% inhibition Apo pol 5' (DRC-2; 5'; concentration 5 (unit not given)): 21%
% inhibition Apo pol 5' (DRC-2; 5'; concentration 10): 31%
% inhibition Apo pol 5' (DRC-2; 5'; concentration 20): 26%
% inhibition Apo pol 5' (DRC-2; 5'; concentration 40): 18%
% inhibition Apo pol 5' (DRC-2; 5'; concentration 80): 2.17%
% inhibition Apol 40' (DRC-2; 40'; concentration 2.5): 6%
% inhibition Apol 40' (DRC-2; 40'; concentration 5): 33%
% inhibition Apol 40' (DRC-2; 40'; concentration 10): 48%
% inhibition Apol 40' (DRC-2; 40'; concentration 20): 53%
% inhibition Apol 40' (DRC-2; 40'; concentration 40): 54%
% inhibition Apol 40' (DRC-2; 40'; concentration 80): 48%
% inhibition ApPOL 90' (DRC-2; 90'; concentration 2.5): 4%
% inhibition ApPOL 90' (DRC-2; 90'; concentration 5): 31%
% inhibition ApPOL 90' (DRC-2; 90'; concentration 10): 48%
% inhibition ApPOL 90' (DRC-2; 90'; concentration 20): 56%
% inhibition ApPOL 90' (DRC-2; 90'; concentration 40): 60%
% inhibition ApPOL 90' (DRC-2; 90'; concentration 80): 59%
% inhibition apPOL 180' (DRC-2; 180'; concentration 2.5): -3.28%
% inhibition apPOL 180' (DRC-2; 180'; concentration 5): 21%
% inhibition apPOL 180' (DRC-2; 180'; concentration 10): 39%
% inhibition apPOL 180' (DRC-2; 180'; concentration 20): 53%
% inhibition apPOL 180' (DRC-2; 180'; concentration 40): 62%
% inhibition apPOL 180' (DRC-2; 180'; concentration 80): 66%
DNA Pol (primary screen value of the 186 hits; unit not given; 90 min, 10 µM): 57
DNA Pol (primary screen value, head "DNA Pol", unit not given; 90 min, 10 µM): 57

C=CC1=C(C)c2cc3[nH]c(cc4nc(cc5[nH]c(cc1n2)c(C)c5CCC(=O)O)C(CCC(=O)O)=C4C)c(C)c3C=C [Molecule 91]
IC50 [1]: < 2.5 µM

CCCCC(=O)N1CCc2c(nc3cc(-c4ccccc4Cl)[nH]n3c2=O)C1 [Molecule 37]
IC50 [1]: 10.4 µM
